This is an account of results in patent US8461328B2, “Tricyclic heterocyclic compounds, compositions and methods of use thereof” (Genentech, Inc., priority 2010, dated 2013).

Type in all cases: biochemical
The target in one assay is T1, JAK3 (Homo sapiens, UniProt P52333).
T1 construct: made in house; host or cells: SF9 insect cells (baculovirus)
The assay can be described thus: JAK3 inhibition (Table 4). Particulars: read-out: JAK3 Ki.

For the next assay, the target named is T2, JAK1 (Homo sapiens, UniProt P23458).
T2 construct: made in house; host or cells: SF9 insect cells (baculovirus)
The assay can be described thus: JAK1 inhibition (Table 4). Particulars: read-out: JAK1 Ki.

The target in another assay is T3, JAK2 (Homo sapiens, UniProt O60674).
T3 construct: made in house; host or cells: SF9 insect cells (baculovirus)
The assay can be described thus: JAK2 inhibition (Table 4). The note with it: read-out: JAK2 Ki.

The target of the next assay is T4, TYK2 (Homo sapiens, UniProt P29597).
T4 construct: made in house; host or cells: SF9 insect cells (baculovirus)
T4 sequence (P29597 873-1187): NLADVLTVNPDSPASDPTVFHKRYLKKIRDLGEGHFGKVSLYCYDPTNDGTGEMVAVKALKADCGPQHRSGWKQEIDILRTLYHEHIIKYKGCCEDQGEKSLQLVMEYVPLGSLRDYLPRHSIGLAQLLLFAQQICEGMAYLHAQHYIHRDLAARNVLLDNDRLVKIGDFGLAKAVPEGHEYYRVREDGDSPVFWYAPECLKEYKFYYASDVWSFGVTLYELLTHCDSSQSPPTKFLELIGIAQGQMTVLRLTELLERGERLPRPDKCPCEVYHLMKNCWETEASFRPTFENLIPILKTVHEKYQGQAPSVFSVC
The assay can be described thus: TYK2 inhibition (Table 4).

T1 sequence (P52333 783-1124): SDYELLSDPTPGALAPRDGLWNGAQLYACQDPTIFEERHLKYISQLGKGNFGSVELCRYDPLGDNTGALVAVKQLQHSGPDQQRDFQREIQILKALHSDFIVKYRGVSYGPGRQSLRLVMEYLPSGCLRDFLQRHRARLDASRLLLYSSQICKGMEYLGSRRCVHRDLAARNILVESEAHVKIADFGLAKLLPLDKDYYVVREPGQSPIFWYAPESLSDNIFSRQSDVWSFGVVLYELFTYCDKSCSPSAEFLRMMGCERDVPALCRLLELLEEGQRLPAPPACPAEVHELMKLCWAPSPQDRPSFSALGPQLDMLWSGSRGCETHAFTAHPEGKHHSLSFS
T3 sequence (O60674 812-1132): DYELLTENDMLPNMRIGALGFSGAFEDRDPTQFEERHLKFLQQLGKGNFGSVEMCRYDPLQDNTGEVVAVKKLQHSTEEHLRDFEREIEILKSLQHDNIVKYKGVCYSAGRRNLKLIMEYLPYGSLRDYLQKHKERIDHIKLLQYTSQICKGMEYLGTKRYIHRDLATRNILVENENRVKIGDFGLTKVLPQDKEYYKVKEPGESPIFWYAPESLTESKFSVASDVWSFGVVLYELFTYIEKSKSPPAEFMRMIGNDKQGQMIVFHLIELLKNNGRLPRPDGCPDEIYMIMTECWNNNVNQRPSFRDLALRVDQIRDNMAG
T2 sequence (P23458 852-1154): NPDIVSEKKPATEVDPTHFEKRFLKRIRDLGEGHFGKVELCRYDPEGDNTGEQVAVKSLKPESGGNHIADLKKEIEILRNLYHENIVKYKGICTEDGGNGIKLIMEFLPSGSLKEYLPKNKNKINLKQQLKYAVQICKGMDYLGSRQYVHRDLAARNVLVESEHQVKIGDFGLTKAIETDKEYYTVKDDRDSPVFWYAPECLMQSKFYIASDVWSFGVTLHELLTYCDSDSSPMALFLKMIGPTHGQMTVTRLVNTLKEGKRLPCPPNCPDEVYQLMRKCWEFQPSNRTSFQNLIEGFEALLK

As for `CC(C)CC(=O)N1CCC[C@@H](n2c([C@@H](C)O)nc3cnc4[nH]ccc4c32)C1` [Example 793, 1-{(R)-3-[2-((R)-1-Hydroxy-ethyl)-6H-1,3,5,6-tetraaza-as-indacen-1-yl]-piperidin-1-yl}-3-methyl-butan-1-one], the Ki is 2.36 µM on JAK3, 0.267 µM on JAK1, 2.28 µM at JAK2 and 2.01 µM at TYK2.

Regarding `C[C@H](O)c1nc2cnc3[nH]ccc3c2n1C1CCCOC1` (single isomer, unassigned) [Example 461], the inhibition constant (Ki) came to 1.18 µM at JAK3, 0.354 µM at JAK1, 1.39 µM at JAK2 and 1.58 µM on TYK2.

On to `Cc1cc(CN2CCC(n3c(C(C)O)nc4cnc5[nH]ccc5c43)C(F)C2)on1` (stereo not shown) [Example 895, 1-{1-[3-Fluoro-1-(3-methyl-isoxazol-5-ylmethyl)-piperidin-4-yl]-1,6-dihydro-1,3,5,6-tetraaza-as-indacen-2-yl}-ethanol], for which the inhibition constant Ki is 0.00334 µM on JAK3, 0.00127 µM on JAK1, 0.0191 µM at JAK2 and 0.0991 µM on TYK2.

With `O=C([C@H]1CCCN1)N1CCC(n2cnc3cnc4[nH]ccc4c32)CC1` [Example 248, (R)-Pyrrolidin-2-yl-[4-(6H-1,3,5,6-tetraaza-as-indacen-1-yl)-piperidin-1-yl]-methanone], the Ki turned out to be 1.16 µM at JAK3, 0.216 µM on JAK1, 0.342 µM on JAK2 and 3.19 µM at TYK2.

Turning to `O=S(=O)(CCC(F)(F)F)NCCc1nc2cnc3[nH]ccc3c2n1C1CCCCC1` [Example 509, 3,3,3-Trifluoro-propane-1-sulfonic acid [2-(1-cyclohexyl-1,6-dihydro-1,3,5,6-tetraaza-as-indacen-2-yl)-ethyl]-amide], the Ki was determined as 0.0655 µM at JAK3, 0.00255 µM on JAK1, 0.0236 µM on JAK2 and 0.0216 µM on TYK2.

For the compound `CC(C)C(=O)N1CC(c2nc3cnc4[nH]ccc4c3n2C2CCN(CCC#N)CC2)C1` [Example 389, 3-{4-[2-(1-Isobutyryl-azetidin-3-yl)-6H-1,3,5,6-tetraaza-as-indacen-1-yl]-piperidin-1-yl}-propionitrile], the Ki was found to be 0.0483 µM on JAK3, 0.0111 µM on JAK1, 0.0343 µM on JAK2 and 0.181 µM on TYK2.

For the compound `CN([C@H]1CC[C@H](n2cnc3cnc4[nH]ccc4c32)CC1)S(C)(=O)=O` [Example 142, Trans N-Methyl-N-[4-(6H-1,2,3,5,6-tetraaza-as-indacen-1-yl)-cyclohexyl]-methanesulfonamide], the Ki on JAK3 was determined as 0.211 µM; at JAK1, 0.00482 µM; on JAK2, 0.00335 µM; at TYK2, 0.0437 µM.

As for `Cn1ccc(CCc2nc3cnc4[nH]ccc4c3n2C2CCN(CCC#N)CC2)n1` [Example 814, 3-(4-{2-[2-(1-Methyl-1H-pyrazol-3-yl)-ethyl]-6H-1,3,5,6-tetraaza-as-indacen-1-yl}-piperidin-1-yl)-propionitrile], the inhibitory constant (Ki) on JAK3 amounted to 0.0907 µM; on JAK1 it was 0.0112 µM; on JAK2, 0.0884 µM; at TYK2 it was 0.58 µM.

`CC(C)(C)C(=O)NCCc1nc2cnc3[nH]ccc3c2n1C1CCN(CCC#N)CC1` [Example 374, N-(2-{l-[l-(2-Cyano-ethyl)-piperidin-4-yl]-1,6-dihydro-1,3,5,6-tetraaza-as-indacen-2-yl}-ethyl)-2,2-dimethyl-propionamide]: the Ki was found to be 0.1 µM at JAK3, 0.00469 µM at JAK1, 0.0894 µM on JAK2 and 0.35 µM on TYK2.

For `C[C@@H](O)c1nc2cnc3[nH]ccc3c2n1[C@@H]1CCCN(C(=O)C2CCCC2)C1` [Example 788, Cyclopentyl-{(R)-3-[2-((R)-1-hydroxy-ethyl)-6H-1,3,5,6-tetraaza-as-indacen-1-yl]-piperidin-1-yl}-methanone], the Ki on JAK3 turned out to be 0.844 µM; at JAK1, 0.0671 µM; on JAK2, 0.792 µM; on TYK2, 0.716 µM.

On to `C[C@@H](O)c1nc2cnc3[nH]ccc3c2n1C1CCN(Cc2cncn2C)CC1` [Example 823, (R)-1-{1-[1-(3-Methyl-3H-imidazol-4-ylmethyl)-piperidin-4-yl]-1,6-dihydro-1,3,5,6-tetraaza-as-indacen-2-yl}-ethanol], for which the Ki on JAK3 stood at 0.0848 µM; on JAK1, 0.0222 µM; at JAK2, 0.171 µM; on TYK2, 0.179 µM.

As for `c1cc2c(ncc3ncn(CC4CCNC4)c32)[nH]1` (racemic) [Example 490, 1-Pyrrolidin-3-ylmethyl-1,6-dihydro-1,3,5,6-tetraaza-as-indacene], the Ki on JAK3 is 1.87 µM; on JAK1 it was 0.391 µM; at JAK2 it was 1.11 µM; at TYK2 it was 3.43 µM.

In the case of `c1cc2c(ncc3nnn(C4CCCOC4)c32)[nH]1` (single isomer, unassigned) [Example 459, 1-(Tetrahydro-pyran-3-yl)-1,6-dihydro-1,2,3,5,6-pentaaza-as-indacene], the Ki worked out at 0.282 µM on JAK3, 0.034 µM at JAK1, 0.0599 µM on JAK2 and 0.127 µM at TYK2.

As to `O=C1CN(Cc2nc3cnc4[nH]ccc4c3n2C2CCOCC2)CCN1` [Example 473, 4-[1-(Tetrahydro-pyran-4-yl)-1,6-dihydro-1,3,5,6-tetraaza-as-indacen-2-ylmethyl]-piperazin-2-one], the inhibition constant Ki on JAK3 came to 2.01 µM; at JAK1 it was 0.447 µM; on JAK2 it was 1.7 µM; at TYK2 it was 1.7 µM.

`CS(=O)(=O)NCCc1nc2cnc3[nH]ccc3c2n1C1CC2CCC1C2` (stereo not shown) [Example 694, N-[2-(1-Bicyclo[2.2.1]hept-2-yl-1,6-dihydro-1,2,3,5,6-tetraaza-as-indacen-2-yl)-ethyl]-methanesulfonamide]: the Ki at JAK3 came to 0.0203 µM; at JAK1, 0.00055 µM; on JAK2 it was 0.00563 µM; at TYK2 it was 0.00758 µM.

On to `OCc1nc2cnc3[nH]ccc3c2n1C1CCN(Cc2cccnc2)CC1` [Example 278, [1-(1-Pyridin-3-ylmethyl-piperidin-4-yl)-1,6-dihydro-1,3,5,6-tetraaza-as-indacen-2-yl]-methanol], for which the inhibitory constant (Ki) on JAK3 amounted to 0.00641 µM; at JAK1, 0.00152 µM; at JAK2, 0.00519 µM; at TYK2, 0.0544 µM.

For `c1cc2c(ncc3ncn([C@@H]4CCCNC4)c32)[nH]1` [Example 2, (R)-1-Piperidin-3-yl-1,6-dihydro-1,2,3,5,6-tetraaza-as-indacene], the Ki at JAK3 was 0.913 µM; on JAK1, 0.177 µM; on JAK2, 0.518 µM; on TYK2, 1.51 µM.

Consider `c1cc2c(ncc3ncn(C4CCCNCC4)c32)[nH]1` (racemic) [Example 489, 1-Azepan-4-yl-1,6-dihydro-1,3,5,6-tetraaza-as-indacene], for which the Ki came out at 0.322 µM at JAK3, 0.034 µM at JAK1, 0.315 µM on JAK2 and 0.596 µM at TYK2.

In the case of `O=C(c1cccnc1)N1CCC[C@@H](n2cnc3cnc4[nH]ccc4c32)C1` [Example 31, Pyridin-3-yl-[(R)-3-(6H-1,3,5,6-tetraaza-as-indacen-1-yl)-piperidin-1-yl]methanone], the inhibition constant Ki was determined as 0.419 µM at JAK3, 0.0132 µM on JAK1, 0.0259 µM at JAK2 and 0.159 µM on TYK2.

`c1cc2c(ncc3nnn(C4CCOCC4)c32)[nH]1` [Example 467, 1-(Tetrahydro-pyran-4-yl)-1,6-dihydro-1,2,3,5,6-pentaaza-as-indacene]: the inhibition constant Ki on JAK3 turned out to be 0.429 µM; on JAK1, 0.0323 µM; on JAK2, 0.0778 µM; at TYK2, 0.23 µM.

Take `Cc1nc2cnc3[nH]ccc3c2n1C1CCOC(C)(C)C1` (stereo not shown) [Example 178, 1-(2,2-Dimethyl-tetrahydro-pyran-4-yl)-2-methyl-1,6-dihydro-1,2,3,5,6-tetraaza-as-indacene]: the inhibition constant (Ki) at JAK3 worked out at 0.0162 µM; at JAK1, 0.0738 µM; at JAK2, 0.0223 µM; on TYK2 it was 0.104 µM.

As for `CC(=O)NCCOC(=O)N[C@H]1CC[C@H](n2cnc3cnc4[nH]ccc4c32)CC1` [Example 599, Trans[4-(6H-1,2,3,5,6-tetraaza-as-indacen-1-yl)-cyclohexyl]-carbamic acid 2-acetylamino-ethyl ester], the inhibition constant Ki was 0.186 µM on JAK3, 0.00768 µM at JAK1, 0.0264 µM at JAK2 and 0.12 µM at TYK2.

For the compound `O=C(CN1CCC(n2cnc3cnc4[nH]ccc4c32)CC1)c1ccccc1` [Example 74], the Ki on JAK3 was found to be 0.0319 µM; at JAK1, 0.00125 µM; on JAK2, 0.00298 µM; at TYK2, 0.0142 µM.

Take `c1cnn(Cc2nc3cnc4[nH]ccc4c3n2C2CCNCC2)c1` [Example 204, 1-Piperidin-4-yl-2-pyrazol-1-ylmethyl-1,6-dihydro-1,2,3,5,6-tetraaza-as-indacene]: the inhibition constant (Ki) on JAK3 turned out to be 0.862 µM; on JAK1, 0.0919 µM; at JAK2 it was 1.54 µM; on TYK2 it was 1.47 µM.

Consider `O=C(C1CC1)N1CCC[C@@H](n2cnc3cnc4[nH]ccc4c32)C1` [Example 75, Cyclopropyl-[(R)-3-(6H-1,3,5,6-tetraaza-as-indacen-1-yl)-piperidin-1-yl]methanone], for which the inhibition constant (Ki) on JAK3 worked out at 0.0607 µM; on JAK1 it was 0.00589 µM; on JAK2, 0.00853 µM; at TYK2, 0.019 µM.

The term Ki denotes a dissociation constant, usually derived from enzyme kinetics or from competition with a known ligand.
